Test results published in US8912169B2, “Beta-lactamase inhibitors” (VenatoRx Pharmaceuticals, Inc., priority 2012, dated 2014).

Assays:
Type in all cases: biochemical
OXA-1 = biological target: T1, OXA-1 (Escherichia coli, UniProt P13661); experiment: β-lactamase enzyme inhibition, OXA-1; conditions: substrate Nitrocefin 100 μM, 486 nm; read-out: Class D OXA-1 IC50
T1 construct: made in house; host or cells: E. coli BL21(DE3)
Method: (§1) For SHV-5, Kpc-2, p99AmpC and OXA-1 β-lactamases, E. coli BL21(DE3) bacterial cells carrying expression plasmids (expressed as native untagged proteins) for the individual β-lactamases were grown in 1 L of Superbroth (Teknova Inc. Hollister, Calif.) supplemented with 100 μg/mlkanamycin selection and 1×5052 (0.5% glycerol, 0.05% glucose and 0.2% α-lactose) at 35° C. for 18-20 hours. Cells were harvested by centrifugation (4,000×g, 4° C., 20 min), resuspended in 50 ml of 10 mM HEPES pH 7.5 ( 1/20 of the initial volume). The cells were lysed by sonication (5 pulses of 45 seconds) at 45 W on ice. The lysates were clarified by centrifugation at 10,000×g for 40 minutes at 4° C. Samples were diluted 5-fold in 50 mM sodium acetate pH 5.0, stored overnight at 4° C., after which they were centrifuged at 10,000×g for 30 minutes to clarify, and filtered through 0.45 μm filters. The samples were loaded onto a 5 ml Capto S sepharose cation exchange column (GE Healthcare) pre-equilibrated with 50 mM sodium acetate pH 5.0. The column was washed with 5 column volumes of 50 mM sodium acetate pH 5.0 to wash out unbound protein and a linear gradient of NaCl (0 to 500 mM) was used to elute the protein (over 16 CV) from the column. Fractions were assayed for β-lactamase activity using Centa (Calbiochem, Gibbstown, N.J.) or Nitrocefin (EMD Millipore chemicals, Darmstadt, Germany) as a reporter β-lactamase substrate for activity in the isolated fractions. Active fractions were pooled, concentrated and further purified by gel filtration chromatography on a Superdex 75 prep grade gel filtration column (GE Healthcare, Piscataway, N.J.) pre-equilibrated in 50 mM Hepes pH 7.5, 150 mM NaCl. Active fractions were pooled concentrated, quantitated by BCA protein determination (Thermo Scientific, Rockford, Ill.), dialyzed into PBS and frozen at −80° C. in 20% glycerol until use.
(§2) An equal volume of diluted enzyme stock was added, and the plates were incubated at 37° C. for 15 min. Nitrocefin was used as substrate for p99 AmpC, VIM-2 and OXA-1 and dispensed into each well at a final concentration of 100 μM. Absorbance at 486 nm was immediately monitored for 10 min using a Biotek Powerwave XS2 microplate spectrophotometer using the GENS software package (Biotek Instruments, Winooski Vt.). In an analogous fashion, imipenem was used as substrate for Kpc-2 and Cefotaxime was used for SHV-5, while changes in absorbance upon hydrolysis of the β-lactam ring were monitored at 300 nm and 260 nm respectively in UV-transparent 96-well microtiter assay plates. Maximum rates of hydrolysis were compared to those in control wells (without inhibitors), and percentages of enzyme inhibition were calculated for each concentration of inhibitor. The concentration of inhibitor needed to reduce the initial rate of hydrolysis of substrate by 50% (IC50) was calculated as the residual activity of β-lactamase at 486 nm using GraFit version 7 kinetics software package (Erithacus Software, Surrey, UK).
(§3) Using the methodology described above, examples of the current invention were evaluated for their ability to inhibit β-lactamase enzymes from all four Ambler classifications (A through D). […] NT=Not tested.

VIM-2 = biological target: T2, VIM-2 (Escherichia coli, UniProt Q5U7L7); experiment: β-lactamase enzyme inhibition, VIM-2; conditions: substrate Nitrocefin 100 μM, 486 nm; read-out: Class B VIM-2 IC50
T2 construct: made in house; host or cells: E. coli BL21(DE3)
Method: For Vim-2 metallo β-lactamase, the procedure was identical with the following exceptions, first the protein was not pH adjusted to pH 5 with 50 mM sodium acetate, second, the chromatography step was changed to a 5 ml Q sepharose anion exchange column pre-equilibrated with 50 mM Hepes pH 7.5, and elution of the protein was achieved by a linear gradient of NaCl (0-600 mM). Finally, the VIM-2 purification required a second run (3rd step) on the Q sepharose anion exchange column to achieve acceptable purity (>90%).
as §2, §3

KPC-2 = biological target: T3, KPC-2 (Klebsiella pneumoniae, UniProt Q9F663); experiment: β-lactamase enzyme inhibition, KPC-2; conditions: substrate imipenem, 300 nm; read-out: Class A KPC-2 IC50
T3 construct: made in house; host or cells: E. coli BL21(DE3)
Method: as §1, §2, §3

SHV-5 = biological target: T4, SHV-5 (Klebsiella pneumoniae, UniProt P0A3M1); experiment: β-lactamase enzyme inhibition, SHV-5
T4 construct: made in house; host or cells: E. coli BL21(DE3)
Method: as §1, §2, §3

p99 AmpC = biological target: T5, p99 AmpC (Enterobacter cloacae, UniProt P05364); experiment: β-lactamase enzyme inhibition, p99 AmpC
T5 construct: made in house; host or cells: E. coli BL21(DE3)
Method: as §1, §2, §3

| Structure (SMILES) | IC50 (OXA-1) [nM] | IC50 (VIM-2) [nM] | IC50 (KPC-2) [nM] | IC50 (SHV-5) [nM] | IC50 (p99 AmpC) [nM] |
| --- | --- | --- | --- | --- | --- |
| NCCNC1CCC(O)(CC(=O)N[C@H]2Cc3cccc(C(=O)O)c3OB2O)CC1 (stereo partly drawn) [Example 43, 3-{2-[4-(2-Amino-ethylamino)-1-hydroxy-cyclohexyl]-acetylamino}-2-hydroxy-3,4-dihydro-2H-benzo[e][1,2]oxaborinine-8-carboxylic acid] | < 100 | < 100 | < 100 | < 100 | < 100 |
| CNCCN[C@H]1CC[C@H](CC(=O)N[C@H]2Cc3cccc(C(=O)O)c3OB2O)CC1 [Example 51, (R)-2-hydroxy-3-(2-(trans-4-(2-(methylamino)ethylamino)cyclohexyl)acetamido)-3,4-dihydro-2H-benzo[e][1,2]oxaborinine-8-carboxylic acid] | < 100 | < 100 | < 100 | < 100 | < 100 |
| CCNCCN[C@H]1CC[C@H](CC(=O)N[C@H]2Cc3cccc(C(=O)O)c3OB2O)CC1 [Example 78, (R)-3-(2-(trans-4-(2-(ethylamino)ethylamino)cyclohexyl)acetamido)-2-hydroxy-3,4-dihydro-2H-benzo[e][1,2]oxaborinine-8-carboxylic acid] | < 100 | < 100 | < 100 | < 100 | < 100 |
| NCCN[C@H]1CC[C@H](CC(=O)N[C@@H]2Cc3cccc(C(=O)O)c3OB2O)CC1 [Example 50, (S)-3-(2-(trans-4-(2-aminoethylamino)cyclohexyl)acetamido)-2-hydroxy-3,4-dihydro-2H-benzo[e][1,2]oxaborinine-8-carboxylic acid] | 100 to 1000 | 100 to 1000 | 100 to 1000 | 100 to 1000 | 100 to 1000 |
| N=C(N)N1CCC(CN[C@H]2CC[C@H](CC(=O)N[C@H]3Cc4cccc(C(=O)O)c4OB3O)CC2)CC1 [Example 34, (R)-3-(2-(trans-4-((1-carbamimidoylpiperidin-4-yl)methylamino)cyclohexyl)acetamido)-2-hydroxy-3,4-dihydro-2H-benzo[e][1,2]oxaborinine-8-carboxylic acid] | < 100 | 100 to 1000 | < 100 | < 100 | < 100 |
| O=C(C[C@H]1CC[C@@H](N2CCNCC2)CC1)N[C@H]1Cc2cccc(C(=O)O)c2OB1O [Example 17, (R)-2-hydroxy-3-(2-(cis-4-(piperazin-1-yl)cyclohexyl)acetamido)-3,4-dihydro-2H-benzo[e][1,2]oxaborinine-8-carboxylic acid] | 100 to 1000 | 1000 to 10000 | < 100 | 100 to 1000 | < 100 |
| N[C@@H](CO)CN[C@H]1CC[C@H](CC(=O)N[C@H]2Cc3cccc(C(=O)O)c3OB2O)CC1 [Example 65, (R)-3-(2-(trans-4-((R)-2-amino-3-hydroxypropylamino)cyclohexyl)acetamido)-2-hydroxy-3,4-dihydro-2H-benzo[e][1,2]oxaborinine-8-carboxylic acid] | < 100 | < 100 | < 100 | < 100 | < 100 |
| NCCN[C@H]1CC[C@H](CC(=O)N[C@H]2Cc3cccc(C(=O)O)c3OB2O)CC1 [Example 15, (R)-3-(2-(trans-4-(2-aminoethylamino)cyclohexyl)acetamido)-2-hydroxy-3,4-dihydro-2H-benzo[e][1,2]oxaborinine-8-carboxylic acid] | 100 to 1000 | < 100 | < 100 | < 100 | < 100 |
| NC1CCC(O)(CC(=O)N[C@H]2Cc3cccc(C(=O)O)c3OB2O)CC1 (stereo partly drawn) [Example 44, 3-[2-(4-Amino-1-hydroxy-cyclohexyl)-acetylamino]-2-hydroxy-3,4-dihydro-2H-benzo[e][1,2]oxaborinine-8-carboxylic acid] | 100 to 1000 | 1000 to 10000 | 100 to 1000 | 100 to 1000 | 100 to 1000 |
| N=C(N)N[C@H]1CC[C@H](CCC(=O)N[C@H]2Cc3cccc(C(=O)O)c3OB2O)CC1 [Example 22, (R)-3-(3-(trans-4-guanidinocyclohexyl)propanamido)-2-hydroxy-3,4-dihydro-2H-benzo[e][1,2]oxaborinine-8-carboxylic acid] | < 100 | 100 to 1000 | < 100 | < 100 | < 100 |
| O=C(C[C@H]1CC[C@H](NCCNc2ncccn2)CC1)N[C@H]1Cc2cccc(C(=O)O)c2OB1O [Example 72] | < 100 | 100 to 1000 | < 100 | < 100 | < 100 |
| O=C(C[C@H]1CC[C@H](NCCNC2CCCC2)CC1)N[C@H]1Cc2cccc(C(=O)O)c2OB1O [Example 73, (R)-3-(2-(trans-4-(2-(cyclopentylamino)ethylamino)cyclohexyl)acetamido)-2-hydroxy-3,4-dihydro-2H-benzo[e][1,2]oxaborinine-8-carboxylic acid] | < 100 | < 100 | < 100 | < 100 | < 100 |
| NCC(=O)N[C@H]1CC[C@H](CC(=O)N[C@H]2Cc3cccc(C(=O)O)c3OB2O)CC1 [Example 68, (R)-3-(2-(trans-4-(2-aminoacetamido)cyclohexyl)acetamido)-2-hydroxy-3,4-dihydro-2H-benzo[e][1,2]oxaborinine-8-carboxylic acid] | < 100 | 100 to 1000 | < 100 | < 100 | < 100 |
| NCC1CCC(=CC(=O)N[C@H]2Cc3cccc(C(=O)O)c3OB2O)CC1 (stereo partly drawn) [Example 11, (3R)-3-(2-(4-(aminomethyl)cyclohexylidene)acetamido)-2-hydroxy-3,4-dihydro-2H-benzo[e][1,2]oxaborinine-8-carboxylic acid] | 100 to 1000 | 1000 to 10000 | 1000 to 10000 | 100 to 1000 | < 100 |
| O=C(C[C@H]1CC[C@H](NCc2cccnc2)CC1)N[C@H]1Cc2cccc(C(=O)O)c2OB1O [Example 27, (R)-2-hydroxy-3-(2-(trans-4-(pyridin-3-ylmethylamino)cyclohexyl)acetamido)-3,4-dihydro-2H-benzo[e][1,2]oxaborinine-8-carboxylic acid] | < 100 | 100 to 1000 | < 100 | < 100 | < 100 |
| NC[C@H]1CC[C@H](CC(=O)N[C@H]2Cc3cccc(C(=O)O)c3OB2O)CC1 [Example 3] | < 100 | 1000 to 10000 | 100 to 1000 | < 100 | < 100 |
| O=C(CC1CCCCC1)N[C@H]1Cc2cccc(C(=O)O)c2OB1O [Example 31, (R)-3-(2-cyclohexylacetamido)-2-hydroxy-3,4-dihydro-2H-benzo[e][1,2]oxaborinine-8-carboxylic acid] | < 100 | 1000 to 10000 | < 100 | < 100 | < 100 |
| CN(C)C[C@H]1CC[C@H](CC(=O)N(C)[C@H]2Cc3cccc(C(=O)O)c3OB2O)CC1 [Example 8, (R)-3-(2-(trans-4-((dimethylamino)methyl)cyclohexyl)-N-methylacetamido)-2-hydroxy-3,4-dihydro-2H-benzo[e][1,2]oxaborinine-8-carboxylic acid] | 100 to 1000 | 1000 to 10000 | < 100 | < 100 | < 100 |
